Where two headings read alike, the source gives them in different places.
Key:
A549 (lung cancer cells) = experiment: Cellular uptake of Pt (FAAS), A549; type: cell-based; settings: 10 μM, 72 hours treatment
Procedure: (§1) Cellular uptake of Pt compounds was measured in SKBR, SW480, A549, A2780P and CH1 cells. The cells were seeded in 60 mm tissue culture dishes with 10 mL of their respective medium and after overnight incubation, the cells were treated with the Pt complexes for 72 h at 10 μM concentration. The cell monolayers at the end of the incubation with the Pt complexes were washed (twice) with ice-cold phosphate buffered saline (PBS), trypsinized and harvested into cold (4° C.) PBS. Cell suspensions were centrifuged and the pellets were stored in PBS at −80° C. until assayed. Afterward, the pellets were digested by high pressure microwave mineralization and Pt content was determined by flameless atomic absorption spectrophotometry (FAAS). The results of cellular Pt uptake were corrected for adsorption effects. All experiments were made in triplicate.^17

CH1 (cancer cells) = experiment: Cellular uptake of Pt (FAAS), CH1; type: cell-based; settings: 10 μM, 72 hours treatment
Procedure: as §1

[1] = test system: liver cell lines (Hep-G2); experiment: MTS in vitro cytotoxicity, Hep-G2; type: cell-based; settings: 72 hours, Table 1, read-out: IC50 values against Hep-G2
Procedure: (§2) All cells were kept in a humidified atmosphere with 5% CO2 at 37° C.; cells from confluent monolayers were removed from flasks by trypsin/EDTA solution and their viability determined by the trypan blue exclusion test.
(§3) Cell growth was determined by the [3-(4,5-dimethylthiazol-2-yl)-5-(3-carboxymethoxyphenyl)-2-(4-sulfophenyl)-2H-tetrazolium, inner salt, (MTS test, Promega, Southampton, UK), a colorimetric assay based on the ability of the viable cells to reduce a soluble yellow tetrazolium salt to blue formazan. 10,000 ovarian cancer cells or 3,000 fibroblast cells for example were seeded per well onto 96-well plates in 100 μl of the appropriate culture medium. 24 hr after sowing the cells, the media was removed and the cells were treated by adding 100 μl of the compound media solutions at the appropriate concentrations. cis-[Pt(NH3)2(malSAHA−2H)], cisplatin and cis-[Pt(NH3)2(mal)] were prepared freshly in cell culture media. […] The maximum percentage of dmso present in any well was less than 0.1% (v/v). cis-[Pt(NH3)2(malBel—2H)], belinostat and malbelinostat were freshly prepared in dimethyl formamide (DMF) and diluted in culture media prior to the MTS assay. The maximum percentage of DMF present in any well was 0.5% (v/v). A range of concentrations between 1 μM and 100 μM was used.
(§4) After 72 hr of treatment, 20 μl of the MTS reagent was added to each well and the plates incubated for 2 hr at 37° C. […] The percentages of surviving cells relative to untreated controls were determined.

[2] = test system: colon cancer cell line (SW480); experiment: MTS in vitro cytotoxicity, SW480; type: cell-based; settings: 72 hours, Table 1, read-out: IC50 values against SW480
Procedure: as §2, §3, §4

[3] = test system: A2780 P (ovarian cancer cells); experiment: Cellular uptake of Pt (FAAS), A2780 P; type: cell-based, human; settings: 10 μM, 72 hours treatment
Procedure: as §1, with “The cells were seeded in 60 mm tissue culture dishes with 10 mL of their respective medium and after overnight incubation, the cells were treated with the Pt complexes for 72 h at 10 μM concentration.” left out

[4] = test system: ovarian cancer cell line A2780 P; experiment: MTS in vitro cytotoxicity, A2780 P; type: cell-based, human
Procedure: (§5) Cells were cultured in the appropriate media. […] In order to retain resistance 1 μM cisplatin was added to the media of the A2780 cisR cells every third passage. A2780 cisR cells are resistant to cisplatin through a combination of decreased uptake, enhanced DNA repair/tolerance, and elevated reduced glutathione levels
as §2, §3, §4

[5] = test system: DNA in SW480 cells (colon cancer); experiment: Pt binding to DNA in cultured cells (ICP-MS), SW480; type: cell-based; settings: 43 μM of Pt complexes, 2 hours of cell treatment
Procedure: (§6) Pt DNA binding of Pt complexes was measured in SW480 cells (colon cancer) and CH1 cells (lymphoma) or alternatively A2780 P and A2780 cisR cells (sensitive and resistant to cisplatin respectively). The cells were seeded in 60 mm tissue culture dishes with 10 ml of their respective medium. After overnight incubation the medium was removed and replaced with 10 ml of the respective medium containing a platinum complex giving a final concentration of 43 or 40 μM depending on the experiment. The cells were incubated with a given Pt complex for either 2 or 4 h depending on the experiment. The cells were trypsinised and centrifuged. The supernantant was removed and the cells washed twice with 1×PBS and centrifuged. The pellet was re-suspended in DNA buffer to which Proteinase K (20 mg/mL) and 10% SDS were added. After a gentle shake and incubation at 45° C. for two hours, RNAse (100 mg/mL) was added and the cells were incubated at 37° C. overnight. The volume of supernatant was noted and an equal volume of phenol was added.
The resulting mixture was shook for 10 min, then centrifuged for 10 min at 10° C. The supernatant was transferred into a new centrifuge tube (15 ml) and the volume was noted. To this was added an equal volume of phenol and chloroform/isoamylalcohol (24:1). The resulting mixture was shook for 10 min, then centrifuged for 10 min at 10° C. (3000 RPM). The supernatant was transferred into a new centrifuge tube (15 mL) and the volume was noted. To this was added an equal volume of chloroform. The resulting mixture was shook for 10 min, then centrifuged for 10 min at 10° C. The supernatant was transferred into a new centrifuge tube (15 mL) and the volume was noted. To this was added a volume that is 1/10 of the supernatant of 3 M sodium acetate (Ph 5.2) and three times the volume of cold 100% isopropanol (from freezer). The solution was shook gently until the DNA is precipitated. […] The absorbance of the DNA by was measured by UV spectrophotometry at 260 nm and 280 nm and the concentration of DNA calculated. Platinum bound to DNA was determined by ICP-MS.

[6] = test system: non-tumorigenic human dermal fibroblast cell line (NHDF); experiment: MTS in vitro cytotoxicity, NHDF; type: cell-based
Procedure: In addition Normal Neonatal Human Dermal Fibroblast, NHDF, cells were cultured in Fibroblast Basal Medium (FBM®, Clonetics, Walkersville, USA) supplemented with hFGF-B, insulin, 5% FBS and gentamicin/amphotericin-B (FGM®-2 SingleQuots, Clonetics, Walkersville, USA).
as §2, §3, §4

[7] = test system: SW480 (colon cancer cells); experiment: Cellular uptake of Pt (FAAS), SW480; type: cell-based; settings: 10 μM, 72 hours treatment
Procedure: as §1

[8] = test system: cisplatin resistant ovarian cancer cell line A2780 cisR; experiment: MTS in vitro cytotoxicity, A2780 cisR; type: cell-based, human
Procedure: as §5, §2, §3, §4

[9] = test system: breast cancer cell line (SKBR); experiment: MTS in vitro cytotoxicity, SKBR; type: cell-based; settings: 72 hours, Table 1, read-out: IC50 values against SKBR
Procedure: as §2, §3, §4

[10] = test system: SKBR (breast cancer cells); experiment: Cellular uptake of Pt (FAAS), SKBR; type: cell-based; settings: 10 μM, 72 hours treatment
Procedure: as §1

[11] = test system: DNA in CH1 cells (lymphoma); experiment: Pt binding to DNA in cultured cells (ICP-MS), CH1; type: cell-based; settings: 43 μM of Pt complexes, 2 hours of cell treatment
Procedure: as §6
The resulting mixture was shook for 10 min, then centrifuged for 10 min at 10° C. The supernatant was transferred into a new centrifuge tube (15 ml) and the volume was noted. […] The absorbance of the DNA by was measured by UV spectrophotometry at 260 nm and 280 nm and the concentration of DNA calculated. Platinum bound to DNA was determined by ICP-MS.

[12] = test system: lung cancer cell line (A549); experiment: MTS in vitro cytotoxicity, A549; type: cell-based; settings: 72 hours, Table 1, read-out: IC50 values against A549
Procedure: as §2, §3, §4

cell line (CH1) = experiment: MTS in vitro cytotoxicity, CH1; type: cell-based; settings: 72 hours, Table 1, read-out: IC50 values against CH1
Procedure: as §2, §3, §4

HDAC1 = target: T1, HDAC1 (Homo sapiens, UniProt Q13547); experiment: Cayman HDAC1 Inhibitor Screening Assay Kit (fluorescence); type: biochemical
T1 construct: purchased Cayman Chemicals, Ann Arbor, USA
T1 sequence (Q13547 whole entry): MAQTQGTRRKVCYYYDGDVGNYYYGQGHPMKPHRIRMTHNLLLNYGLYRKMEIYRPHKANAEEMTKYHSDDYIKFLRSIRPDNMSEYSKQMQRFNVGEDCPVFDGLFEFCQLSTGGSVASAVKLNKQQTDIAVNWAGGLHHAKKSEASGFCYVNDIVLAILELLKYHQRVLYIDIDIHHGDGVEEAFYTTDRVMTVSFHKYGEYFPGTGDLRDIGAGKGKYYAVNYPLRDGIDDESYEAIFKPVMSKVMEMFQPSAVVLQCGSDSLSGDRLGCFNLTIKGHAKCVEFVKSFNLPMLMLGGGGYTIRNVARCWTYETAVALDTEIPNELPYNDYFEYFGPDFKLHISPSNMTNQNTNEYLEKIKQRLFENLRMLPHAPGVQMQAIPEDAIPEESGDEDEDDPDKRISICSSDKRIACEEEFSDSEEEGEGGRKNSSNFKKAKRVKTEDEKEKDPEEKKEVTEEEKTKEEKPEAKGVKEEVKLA
Procedure: The assay provides a fast two-step fluorescence-based method for measuring HDAC activity. Briefly, in the first step an acetylated lysine residue was incubated with HDAC1 and potential inhibitors. Deacetylation sensitises the substrate so that treatment with the HDAC developer in the second step releases a fluorescent product. The fluorescent reaction product was analysed using a plate reader with an excitation wavelengths of 350 nm and emission wavelengths of 460 nm.

Q: Which “Uptake of Pt complexes into A549” value (A549 (lung cancer cells)) does the source give for [NH2][Pt]1([NH2])[O]C(=O)CC(=O)[O]1 [cis-[Pt(NH3)2(mal)]] here?
A: The value was 357.1 ± 47.1 pmol Pt/2 × 10^6 cell.

Q: And the “Uptake of Pt complexes into CH1” value (CH1 (cancer cells))?
A: Its value is 282.6 ± 20.6 pmol Pt/2 × 10^6 cell.

Q: What about the IC50 [1] of the same molecule?
A: Its IC50 is 44.5 ± 0.9 µM.

Q: What about the IC50 [2] of the same molecule?
A: The IC50 was 23.2 ± 1.5 µM.

Q: What about the “Uptake of Pt complexes into A2780 P” value [3] of the same molecule?
A: Its value is 220.95 ± 10.95 pmol Pt/2 × 10^6 cell.

Q: What about the IC50 ([4]; 72 hours, MTS, Table 1, read-out: IC50 values against A2780 P) of the same molecule?
A: Its IC50 is 16 ± 4.3 µM.

Q: What about the “DNA-bound Pt in SW480” value [5] of the same molecule?
A: Its value is 1.25 · 10^−15 moles of Pt/μg of DNA.

Q: What about the IC50 ([6]; 72 hours, MTS, Table 1, read-out: IC50 values against NHDF) of the same molecule?
A: Its IC50 is 48 ± 2.2 µM.

Q: What about the “Uptake of Pt complexes into SW480” value [7] of the same molecule?
A: Its value is 127.35 ± 27.4 pmol Pt/2 × 10^6 cell.

Q: What about the IC50 ([8]; 72 hours, MTS, Table 1, read-out: IC50 values against A2780cisR) of the same molecule?
A: Its IC50 is 81 ± 5.8 µM.

Q: What about the IC50 [9] of the same molecule?
A: Its IC50 is 14.6 ± 2.5 µM.

Q: And the “Uptake of Pt complexes into SKBR” value [10]?
A: Its value is 488.15 ± 38.4 pmol Pt/2 × 10^6 cell.

Q: What about the “DNA-bound Pt in CH1” value [11] of the same molecule?
A: Its value is 1.76 · 10^−15 moles of Pt/μg of DNA.

Q: And the IC50 [12]?
A: The IC50 was 6.3 µM.

Q: What about the IC50 (cell line (CH1)) of the same molecule?
A: The IC50 was 2.5 ± 0.5 µM.

Q: Which IC50 ([4]; Homo sapiens, A2780, 72 h, read-out: IC50 (μM) ± S.E.M. against A2780P) does the source give for O=C(/C=C/c1cccc(S(=O)(=O)Nc2ccccc2)c1)NO [belinostat, reference compound] here?
A: Its IC50 is under 1 µM.

Q: What about the IC50 ([6]; Homo sapiens, NHDF, 72 h, read-out: IC50 (μM) ± S.E.M. against NHDF) of the same molecule?
A: The IC50 was 3 ± 0.5 µM.

Q: And the IC50 ([8]; Homo sapiens, A2780cisR, 72 h, read-out: IC50 (μM) ± S.E.M. against A2780CisR)?
A: Its IC50 is under 1 µM.

Q: How did the “inhibition of HDAC1 (in words)” value (HDAC1) turn out when O=C(CCCCCCC(=O)Nc1ccc(CC(C(=O)O)C(=O)O)cc1)NO [malSAHA] was run?
A: Its value is “inhibit HDAC1”.

Q: And the IC50 (HDAC1; at 200 μM)?
A: The IC50 was 0.0595 µM.

Q: For O=C(/C=C/c1ccc(S(=O)(=O)Nc2ccc(CC(C(=O)O)C(=O)O)cc2)cc1)NO [malBel], which IC50 ([4]; 72 hours, MTS, Table 5, read-out: IC50 (μM) ± S.E.M. against A2780P) is on record?
A: The IC50 was 45.8 µM.

Q: And the IC50 ([6]; 72 hours, MTS, Table 5, read-out: IC50 (μM) ± S.E.M. against NHDF)?
A: The IC50 was 28.9 µM.

Q: And the IC50 ([8]; 72 hours, MTS, Table 5, read-out: IC50 (μM) ± S.E.M. against A2780CisR)?
A: The IC50 was 32.1 µM.

Source: patent publication US8901337B2, “Metal complexes having dual histone deacetylase inhibitory and DNA-binding activity” (Royal College of Surgeons in Ireland, priority 2009, dated 2014)
